The record followed here is PubChem BioAssay (NCI).

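Growth conditions: 96-well plates. Treatment: test compound, 48 hours, 5 concentrations. Analysis: linear interpolation between bracketing concentrations; unreached endpoints set to highest concentration. At the GI50, growth is halved. TGI is the concentration that stops growth completely.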 Some results are limits rather than exact numbers.

Among the test systems are HCC-2998 colon; NCI-H460 lung; OVCAR-5 ovarian; SR leukemia; U251 CNS; A498 renal; DU-145 prostate; IGROV1 ovarian; OVCAR-3 ovarian; CCRF-CEM leukemia.
Assay in all cases: DTP human tumour cell line panel, 48 h

In the case of `C/C=C(\C)c1cc(O)c(C)c2c1Oc1cc(O)c(Cl)c(C)c1C(=O)O2`, the TGI with HCC-2998 colon came out at 26.5 µM; in the experiment with NCI-H460 lung it was 39.7 µM; in the experiment on OVCAR-5 ovarian, 30.2 µM; in the experiment with SR leukemia, 49.5 µM; with U251 CNS it was 39.6 µM.

As for `Cc1ccc(C2=Nc3ccccc3SC(c3cccc([N+](=O)[O-])c3)C2)cc1` (configuration not stated), the TGI with A498 renal was > 100 µM; in the experiment on DU-145 prostate, > 100 µM; in the experiment on IGROV1 ovarian, > 100 µM; with NCI-H460 lung, > 100 µM; with OVCAR-3 ovarian it was 60 µM; in the experiment with OVCAR-5 ovarian, > 100 µM. This compound displayed a TGI in the experiment on U251 CNS of 16.9 µM.

For the compound `Cn1c2ccccc2n2c(=O)c3c(c(C#N)c12)CCCC3`, the TGI in the experiment on A498 renal, in the experiment with HCC-2998 colon, in the experiment on IGROV1 ovarian, in the experiment with NCI-H460 lung, in the experiment with OVCAR-3 ovarian and with OVCAR-5 ovarian was > 100 µM each time. The TGI with SR leukemia and in the experiment with U251 CNS was > 100 µM throughout.

For `COCCOCOc1ccc(OCOCCOC)c2c1C(=O)c1ccccc1C2=O`, the TGI in the experiment on A498 renal, in the experiment on CCRF-CEM leukemia, in the experiment with HCC-2998 colon, with IGROV1 ovarian, in the experiment with NCI-H460 lung and with OVCAR-3 ovarian was > 100 µM throughout. For the same compound, the TGI with OVCAR-5 ovarian and in the experiment with U251 CNS was > 100 µM each time.

As to `CN(C)c1ccc(N=Nc2ccncc2)cc1`, the TGI in the experiment on A498 renal was > 100 µM; in the experiment on CCRF-CEM leukemia, > 100 µM; in the experiment on DU-145 prostate, > 100 µM; in the experiment on HCC-2998 colon, 92.6 µM; in the experiment with IGROV1 ovarian, > 100 µM; with NCI-H460 lung, > 100 µM. For the same compound, the TGI in the experiment on OVCAR-3 ovarian, in the experiment on OVCAR-5 ovarian and in the experiment with U251 CNS was > 100 µM in each case.

Regarding `CCO/C=C1\N=C(c2ccccc2Br)OC1=O`, the TGI in the experiment on A498 renal, in the experiment on CCRF-CEM leukemia, in the experiment on HCC-2998 colon, in the experiment on NCI-H460 lung, in the experiment on OVCAR-3 ovarian and with OVCAR-5 ovarian was > 100 µM throughout.

As to `COc1ccc2c(c1OC)C(=O)OC2C1c2c(c([N+](=O)[O-])c3c(c2OC)OCO3)CCN1C` (configuration not stated), the GI50 was > 100 µM in the experiment with A498 renal; > 100000 nM in the experiment with DU-145 prostate; 27800 nM in the experiment on HCC-2998 colon; > 100000 nM with NCI-H460 lung; > 100 µM in the experiment on OVCAR-3 ovarian; > 100 µM in the experiment with OVCAR-5 ovarian. For the same compound, in the experiment with U251 CNS, the GI50 is > 100000 nM. For the same compound, the TGI with A498 renal, with DU-145 prostate, in the experiment with HCC-2998 colon, with NCI-H460 lung, with OVCAR-3 ovarian and in the experiment on OVCAR-5 ovarian was > 100 µM each time. In the experiment with U251 CNS, the TGI is > 100 µM.

Regarding `COC1O[C@@H]2C[C@H]3C(C)(C)CCC[C@]3(C)C3=CCCC1[C@@]32C` (some centres not stated), the GI50 in the experiment on A498 renal was > 100 µM; in the experiment with CCRF-CEM leukemia, > 100000 nM; in the experiment with DU-145 prostate it was > 100000 nM; with IGROV1 ovarian, > 100 µM; in the experiment with NCI-H460 lung, > 100000 nM; in the experiment on OVCAR-3 ovarian, > 100 µM. In addition, the values for the GI50 in the experiment with OVCAR-5 ovarian and in the experiment on U251 CNS were > 100 µM and > 100000 nM, respectively. Besides, the TGI in the experiment with A498 renal, in the experiment on CCRF-CEM leukemia, with DU-145 prostate, in the experiment on IGROV1 ovarian, in the experiment on NCI-H460 lung and in the experiment with OVCAR-3 ovarian was > 100 µM each time. In addition, the TGI with OVCAR-5 ovarian and in the experiment with U251 CNS was > 100 µM each time.

With `CC(=O)c1c(C(F)(F)F)n([O-])c2ccc(C)cc2[n+]1=O`, the GI50 with A498 renal was 4.42 µM; with CCRF-CEM leukemia it was 555 nM; in the experiment on DU-145 prostate, 1430 nM; with HCC-2998 colon it was 1890 nM; in the experiment with IGROV1 ovarian, 4.14 µM; with NCI-H460 lung, 1390 nM. Also, the GI50 in the experiment with OVCAR-3 ovarian is 7.09 µM; in the experiment on OVCAR-5 ovarian it was 7 µM; in the experiment on U251 CNS it was 2790 nM. Besides, the TGI was 18.9 µM in the experiment with A498 renal; 4.83 µM in the experiment with CCRF-CEM leukemia; 3.07 µM in the experiment on DU-145 prostate; 8.53 µM in the experiment on HCC-2998 colon; > 100 µM in the experiment with IGROV1 ovarian; > 39.8 µM in the experiment with NCI-H460 lung. Moreover, the figures for the TGI in the experiment on OVCAR-3 ovarian, in the experiment on OVCAR-5 ovarian and with U251 CNS were > 48.2 µM, 40.3 µM and > 35.4 µM, respectively.

Turning to `COc1ccc(/C=N/NC(=O)Cn2c(-c3ccc(S(C)(=O)=O)cc3)nc3cc(Cl)ccc32)cc1`, the GI50 in the experiment with A498 renal was 0.79 µM; in the experiment on CCRF-CEM leukemia it was 318 nM; in the experiment on DU-145 prostate, 1950 nM; in the experiment with HCC-2998 colon it was 1850 nM; in the experiment on IGROV1 ovarian, 3.63 µM; in the experiment with NCI-H460 lung it was 1510 nM. Further, the results for the GI50 with OVCAR-3 ovarian, with OVCAR-5 ovarian and in the experiment with U251 CNS were 0.367 µM, 3.54 µM and 1160 nM, respectively. The TGI is 3.65 µM in the experiment with A498 renal; > 50 µM with CCRF-CEM leukemia; > 50 µM with DU-145 prostate; 12.5 µM in the experiment with HCC-2998 colon; > 50 µM in the experiment on IGROV1 ovarian; > 50 µM with NCI-H460 lung. The TGI in the experiment on OVCAR-3 ovarian, in the experiment with OVCAR-5 ovarian and in the experiment with U251 CNS was > 50 µM throughout.

For `O=c1[nH]cnc2c(C3NC(CO)C(O)C3O)c[nH]c12` (configuration not stated), the GI50 in the experiment with A498 renal was > 100 µM; in the experiment with DU-145 prostate, > 100000 nM; with HCC-2998 colon it was > 100000 nM; with IGROV1 ovarian, > 100 µM; with NCI-H460 lung it was > 100000 nM; in the experiment on OVCAR-3 ovarian it was > 100 µM. The GI50 with OVCAR-5 ovarian is > 100 µM; in the experiment on U251 CNS it was > 100000 nM. In addition, the total growth inhibition concentration (TGI) with A498 renal, in the experiment with DU-145 prostate, in the experiment on HCC-2998 colon, in the experiment with IGROV1 ovarian, in the experiment with NCI-H460 lung and in the experiment with OVCAR-3 ovarian was > 100 µM in each case. The TGI with OVCAR-5 ovarian and in the experiment on U251 CNS was > 100 µM in each case.

Consider `COc1ccc(C=O)c(NC(=O)C(C)C)c1`, for which the TGI in the experiment with A498 renal is > 100 µM; in the experiment on CCRF-CEM leukemia, > 10 µM; in the experiment on IGROV1 ovarian, > 100 µM; in the experiment on NCI-H460 lung, > 100 µM; in the experiment with OVCAR-3 ovarian it was > 100 µM; in the experiment with OVCAR-5 ovarian, > 100 µM. The TGI with U251 CNS is > 100 µM.
